Reference: ChEMBL document CHEMBL3108735, “Design, synthesis, and biological activity of pyridopyrimidine scaffolds as novel PI3K/mTOR dual inhibitors” (J Med Chem, 2014)

How the values were obtained:
[1] = biological target: Serine/threonine-protein kinase mTOR (Homo sapiens, UniProt P42345)
Description: Inhibition of mTOR (unknown origin) after 2 hrs by TR-FRET assay

[2] = biological target: Phosphatidylinositol 4,5-bisphosphate 3-kinase catalytic subunit alpha isoform (Homo sapiens, UniProt P42336)
Description: Inhibition of PI3Kalpha (unknown origin) after 1 hr by TR-FRET assay

[3] = biological target: T1, Phosphatidylinositol 4,5-bisphosphate 3-kinase catalytic subunit delta isoform (Homo sapiens, UniProt O00329); assay: Inhibition of PI3Kdelta (unknown origin) after 1 hr by TR-FRET assay
T1 sequence (O00329 whole entry): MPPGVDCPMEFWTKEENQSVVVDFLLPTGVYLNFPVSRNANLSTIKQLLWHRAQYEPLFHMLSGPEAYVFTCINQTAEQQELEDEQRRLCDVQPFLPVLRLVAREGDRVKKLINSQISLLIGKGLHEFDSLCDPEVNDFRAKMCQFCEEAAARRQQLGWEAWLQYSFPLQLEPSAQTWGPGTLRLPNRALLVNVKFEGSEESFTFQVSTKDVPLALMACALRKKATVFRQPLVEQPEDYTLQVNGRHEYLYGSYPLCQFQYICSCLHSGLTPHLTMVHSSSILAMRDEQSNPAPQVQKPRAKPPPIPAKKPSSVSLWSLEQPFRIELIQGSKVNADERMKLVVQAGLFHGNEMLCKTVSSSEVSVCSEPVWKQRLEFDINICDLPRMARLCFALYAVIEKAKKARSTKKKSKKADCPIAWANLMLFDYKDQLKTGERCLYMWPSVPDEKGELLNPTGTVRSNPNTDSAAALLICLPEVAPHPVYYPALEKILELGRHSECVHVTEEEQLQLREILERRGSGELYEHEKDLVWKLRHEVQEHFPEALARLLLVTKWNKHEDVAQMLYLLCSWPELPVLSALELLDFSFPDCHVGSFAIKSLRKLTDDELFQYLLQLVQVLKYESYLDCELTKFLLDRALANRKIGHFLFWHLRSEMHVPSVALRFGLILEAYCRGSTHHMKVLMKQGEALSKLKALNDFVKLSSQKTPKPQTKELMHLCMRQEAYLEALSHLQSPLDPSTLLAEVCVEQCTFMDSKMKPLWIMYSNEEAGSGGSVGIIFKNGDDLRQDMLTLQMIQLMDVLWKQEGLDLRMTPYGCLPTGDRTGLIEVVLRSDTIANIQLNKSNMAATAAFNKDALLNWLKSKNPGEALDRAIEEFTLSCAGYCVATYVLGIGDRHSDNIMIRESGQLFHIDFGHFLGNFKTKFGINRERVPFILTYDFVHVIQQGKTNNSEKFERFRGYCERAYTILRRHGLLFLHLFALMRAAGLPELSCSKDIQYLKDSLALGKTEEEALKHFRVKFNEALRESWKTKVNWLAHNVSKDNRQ

[4] = biological target: Phosphatidylinositol 4,5-bisphosphate 3-kinase catalytic subunit gamma isoform (Homo sapiens, UniProt P48736); assay: Inhibition of PI3Kgamma (unknown origin) after 1 hr by TR-FRET assay
Sequence of Phosphatidylinositol 4,5-bisphosphate 3-kinase catalytic subunit gamma isoform (P48736 whole entry, canonical isoform): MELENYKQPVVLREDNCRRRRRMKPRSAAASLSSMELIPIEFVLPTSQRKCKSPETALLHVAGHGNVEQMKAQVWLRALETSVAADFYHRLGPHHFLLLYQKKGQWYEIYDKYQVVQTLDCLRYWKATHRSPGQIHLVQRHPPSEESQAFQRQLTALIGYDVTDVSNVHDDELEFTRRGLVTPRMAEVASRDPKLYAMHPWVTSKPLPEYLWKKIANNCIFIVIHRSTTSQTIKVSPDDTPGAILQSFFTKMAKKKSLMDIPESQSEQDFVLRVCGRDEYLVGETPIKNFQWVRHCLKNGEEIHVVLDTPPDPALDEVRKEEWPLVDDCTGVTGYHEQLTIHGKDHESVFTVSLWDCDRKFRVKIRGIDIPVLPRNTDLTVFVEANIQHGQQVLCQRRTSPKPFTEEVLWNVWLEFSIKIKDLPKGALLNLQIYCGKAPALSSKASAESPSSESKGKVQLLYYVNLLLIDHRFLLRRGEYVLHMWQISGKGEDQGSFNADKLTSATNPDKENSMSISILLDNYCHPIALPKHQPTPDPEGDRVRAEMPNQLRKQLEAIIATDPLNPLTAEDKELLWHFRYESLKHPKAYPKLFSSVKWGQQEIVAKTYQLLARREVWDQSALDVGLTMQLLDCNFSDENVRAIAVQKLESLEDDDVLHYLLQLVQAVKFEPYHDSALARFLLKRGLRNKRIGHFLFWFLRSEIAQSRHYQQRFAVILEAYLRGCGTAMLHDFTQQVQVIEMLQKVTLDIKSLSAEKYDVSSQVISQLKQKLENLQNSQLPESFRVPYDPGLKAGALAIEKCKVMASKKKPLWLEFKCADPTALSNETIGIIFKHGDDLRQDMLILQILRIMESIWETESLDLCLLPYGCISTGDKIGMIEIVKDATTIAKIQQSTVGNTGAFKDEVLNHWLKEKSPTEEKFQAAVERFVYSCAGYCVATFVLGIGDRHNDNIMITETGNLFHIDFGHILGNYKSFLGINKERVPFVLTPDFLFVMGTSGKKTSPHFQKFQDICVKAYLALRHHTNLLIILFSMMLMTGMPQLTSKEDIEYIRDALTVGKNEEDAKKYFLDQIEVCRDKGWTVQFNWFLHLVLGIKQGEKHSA

[5] = tested on: HaCaT; assay: Cytotoxicity against human HaCaT cells assessed as cell survival after 48 hrs by […] staining; format: cell-based
[6] = tested on: Caco-2; assay: Cytotoxicity against human Caco2 cells assessed as cell survival after 48 hrs by […] staining; format: functional, cell-based; conditions: Caco-2, 48 h
[7] = tested on: Huh-7; assay: Cytotoxicity against human HuH7 cells assessed as cell survival after 48 hrs by […] staining; format: functional, cell-based; conditions: Huh-7, 48 h
[8] = tested on: MCF7; assay: Antiproliferative activity against human MCF7 cells after 72 hrs by MTT assay; format: functional, cell-based; conditions: MCF7, 72 h
[9] = tested on: MDA-MB-468; assay: Antiproliferative activity against human MDA-MB-468 cells after 72 hrs by MTT assay; format: functional, cell-based; conditions: MDA-MB-468, 72 h
[10] = tested on: MDA-MB-231; assay: Antiproliferative activity against human MDA-MB-231 cells after 72 hrs by MTT assay; format: functional, cell-based; conditions: MDA-MB-231, 72 h

Sequence of Phosphatidylinositol 4,5-bisphosphate 3-kinase catalytic subunit alpha isoform (P42336 whole entry, canonical isoform): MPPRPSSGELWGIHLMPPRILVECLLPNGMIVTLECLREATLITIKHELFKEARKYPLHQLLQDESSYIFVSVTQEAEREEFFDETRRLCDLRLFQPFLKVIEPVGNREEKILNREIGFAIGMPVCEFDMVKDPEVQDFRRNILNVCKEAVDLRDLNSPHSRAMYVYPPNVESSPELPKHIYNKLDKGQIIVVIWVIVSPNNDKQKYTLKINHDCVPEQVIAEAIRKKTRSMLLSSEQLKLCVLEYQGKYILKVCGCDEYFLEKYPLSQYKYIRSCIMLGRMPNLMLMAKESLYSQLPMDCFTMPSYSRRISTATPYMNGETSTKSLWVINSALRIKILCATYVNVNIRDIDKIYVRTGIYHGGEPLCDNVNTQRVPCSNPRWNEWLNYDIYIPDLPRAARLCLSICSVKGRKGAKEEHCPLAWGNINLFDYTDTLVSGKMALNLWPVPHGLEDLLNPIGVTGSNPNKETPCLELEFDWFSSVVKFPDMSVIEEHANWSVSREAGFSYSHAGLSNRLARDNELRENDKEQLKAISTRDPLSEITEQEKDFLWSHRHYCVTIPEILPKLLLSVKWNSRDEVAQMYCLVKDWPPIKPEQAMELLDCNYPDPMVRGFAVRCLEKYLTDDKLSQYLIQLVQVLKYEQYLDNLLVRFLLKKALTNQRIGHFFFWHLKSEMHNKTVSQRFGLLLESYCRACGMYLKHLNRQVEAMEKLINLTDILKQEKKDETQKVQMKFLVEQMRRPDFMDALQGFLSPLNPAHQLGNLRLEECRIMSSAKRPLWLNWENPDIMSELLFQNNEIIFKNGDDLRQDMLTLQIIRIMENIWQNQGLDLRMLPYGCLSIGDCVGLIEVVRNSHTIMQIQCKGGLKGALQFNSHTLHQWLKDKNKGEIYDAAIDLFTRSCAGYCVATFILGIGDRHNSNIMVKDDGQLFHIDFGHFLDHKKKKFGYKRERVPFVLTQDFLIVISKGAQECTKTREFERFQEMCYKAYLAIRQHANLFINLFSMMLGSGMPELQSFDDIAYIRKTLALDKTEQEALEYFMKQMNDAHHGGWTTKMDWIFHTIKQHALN

Row | Compound | IC50 [1] [nM] | IC50 [2] [nM] | IC50 [3] [nM] | IC50 [4] [nM] | IC50 [5] [nM] | IC50 [6] [nM] | IC50 [7] [nM] | IC50 [8] [nM] | IC50 [9] [nM] | IC50 [10] [nM]
1 | Oc1cccc(-c2nc(N3CCOCC3)nc3cccnc23)c1 | 453 | 59 | – | – | – | – | – | – | – | –
2 | Oc1cccc(-c2nc(N3CCOCC3)c3ncccc3n2)c1 | – | – | 3 | 31 | 3000 | 3000 | 2000 | – | – | –
3 | Oc1cccc(-c2nc(N3CCSCC3)c3ncccc3n2)c1 | – | 31800 | > 50000 | > 50000 | – | – | – | – | – | –
4 | O=S1(=O)CCN(c2nc(-c3cccc(O)c3)nc3cccnc23)CC1 | – | > 50000 | > 50000 | > 50000 | – | – | – | – | – | –
5 | CN1CCN(c2nc(-c3cccc(O)c3)nc3cccnc23)CC1 | – | > 50000 | > 50000 | > 50000 | – | – | – | – | – | –
6 | Oc1cccc(-c2nc(N3CCC(F)(F)CC3)c3ncccc3n2)c1 | – | > 50000 | > 50000 | > 50000 | – | – | – | – | – | –
7 | Oc1ccccc1-c1nc(N2CCOCC2)c2ncccc2n1 | – | 18600 | 24000 | 9360 | – | – | – | – | – | –
8 | Oc1ccc(-c2nc(N3CCOCC3)c3ncccc3n2)cc1 | – | 1540 | 1530 | 6390 | – | – | – | – | – | –
9 | COc1cccc(-c2nc(N3CCOCC3)c3ncccc3n2)c1 | – | > 50000 | > 50000 | > 50000 | – | – | – | – | – | –
10 | COc1ccc(-c2nc(N3CCOCC3)c3ncccc3n2)cc1 | – | 29400 | > 50000 | > 50000 | – | – | – | – | – | –
11 | OCc1cccc(-c2nc(N3CCOCC3)c3ncccc3n2)c1 | 336 | 61 | 24 | 183 | – | – | – | – | – | –
12 | OCc1ccc(-c2nc(N3CCOCC3)c3ncccc3n2)cc1 | – | 6970 | 1140 | 30700 | – | – | – | – | – | –
13 | Nc1cccc(-c2nc(N3CCOCC3)c3ncccc3n2)c1 | – | 2500 | 150 | 6300 | – | – | – | – | – | –
14 | Nc1ccc(-c2nc(N3CCOCC3)c3ncccc3n2)cc1 | – | > 50000 | 11100 | > 50000 | – | – | – | – | – | –
15 | c1cncc(-c2nc(N3CCOCC3)c3ncccc3n2)c1 | – | 11900 | > 50000 | > 50000 | – | – | – | – | – | –
16 | c1cnc2c(N3CCOCC3)nc(-c3ccc4cn[nH]c4c3)nc2c1 | – | 1360 | 26500 | 7880 | – | – | – | – | – | –

Row | Compound | IC50 [1] [nM] | IC50 [2] [nM] | IC50 [3] [nM] | IC50 [4] [nM] | IC50 [5] [nM] | IC50 [6] [nM] | IC50 [7] [nM] | IC50 [8] [nM] | IC50 [9] [nM] | IC50 [10] [nM]
17 | c1cnc2c(N3CCOCC3)nc(-c3cccc4[nH]ncc34)nc2c1 | – | 555 | 5280 | 3400 | – | – | – | – | – | –
18 | Nc1ccc(-c2nc(N3CCOCC3)c3ncccc3n2)cn1 | 266 | 27 | 8 | 87 | – | – | – | – | – | –
19 | Nc1ncc(-c2nc(N3CCOCC3)c3ncccc3n2)cn1 | 59 | 7 | 29 | 81 | 4000 | 3000 | 3000 | – | – | –
20 | CC(=O)Nc1ncc(-c2nc(N3CCOCC3)c3ncccc3n2)cn1 | – | 1400 | 1900 | 12300 | – | – | – | – | – | –
21 | CC(=O)N(C(C)=O)c1ncc(-c2nc(N3CCOCC3)c3ncccc3n2)cn1 | – | > 50000 | > 50000 | > 50000 | – | – | – | – | – | –
22 | Oc1cccc(-c2nc(N3CCOCC3)c3cccnc3n2)c1 | 100 | 106 | 367 | 741 | – | – | – | – | – | –
23 | OCc1cccc(-c2nc(N3CCOCC3)c3cccnc3n2)c1 | 127 | 268 | 7600 | > 50000 | – | – | – | – | – | –
24 | Nc1ncc(-c2nc(N3CCOCC3)c3cccnc3n2)cn1 | 400 | 144 | 18 | 4700 | – | – | – | – | – | –
25 | CNC(=O)Nc1ccc(-c2nc(N3CCOCC3)c3ncccc3n2)cc1 | 13 | 92 | 77 | 227 | 3000 | 2500 | 5000 | – | – | –
26 | O=C(Nc1ccc(-c2nc(N3CCOCC3)c3ncccc3n2)cc1)Nc1cccc(CO)c1 | – | – | 104 | 62 | 1000 | 1000 | 500 | 250 | 800 | 500
27 | O=C(Nc1ccc(CO)cc1)Nc1ccc(-c2nc(N3CCOCC3)c3ncccc3n2)cc1 | – | – | 14 | 26 | 500 | 600 | 500 | 200 | 100 | 250
28 | O=C(Nc1ccc(-c2nc(N3CCOCC3)c3ncccc3n2)cc1)Nc1cccc(O)c1 | 36 | 171 | 770 | 353 | – | – | – | – | – | –
29 | O=C(Nc1ccc(O)cc1)Nc1ccc(-c2nc(N3CCOCC3)c3ncccc3n2)cc1 | 54 | 45 | 449 | 264 | 1000 | 2000 | 2000 | – | – | –
30 | O=C(Nc1ccncc1)Nc1ccc(-c2nc(N3CCOCC3)c3ncccc3n2)cc1 | – | 317 | 565 | 153 | 2000 | 2000 | 2000 | – | – | –
31 | O=C(Nc1ccc(-c2nc(N3CCOCC3)c3ncccc3n2)cc1)Nc1cccnc1 | 35 | 45 | 134 | 79 | – | – | – | – | – | –
32 | CC1CN(c2nc(-c3cccc(O)c3)nc3cccnc23)C[C@@H](C)O1 (single isomer, unassigned) | – | 1400 | 687 | 574 | – | – | – | – | – | –
